In US10125125B2, “N-(heteroaryl)-sulfonamide derivatives useful as S100-inhibitors” (Active Biotech AB, priority 2013, dated 2018):

Biological target: biotinylated human S100A9 : rhRAGE-Fc interaction (Homo sapiens (Human), UniProt P06702)
Test: AlphaScreen inhibition assay, Biot-hS100A9:hRAGE-Fc (S100A9-RAGE inhibition assay)
Format: binding
Excerpt: FIG. 1 is a schematic representation of an assay of the inhibition of the interaction between biotinylated human S100A9 and human RAGE-Fc using a small molecule S100A9 binder.
Inhibition Assay, Biot-hS100A9:hRAGE-Fc
The AlphaScreen (Amplified Luminescent Proximity Homogeneous Assay) contains two types of beads, Alpha Donor beads and Acceptor beads (PerkinElmer). Upon laser excitation at 680 nm a photosensitizer in the Donor bead converts ambient oxygen to a more excited singlet state. The singlet oxygen molecule diffuses (maximum 200 nm) to react with a thioxene derivative in the Acceptor bead and generates a chemiluminescence reaction. Fluorophores in the Acceptor bead subsequently emit light at 520-620 nm which can be detected in the EnVision® Multilabel plate Reader (PerkinElmer). The beads are light sensitive and all work with the beads is performed under subdued light conditions or using green filters on light sources (Roscolux Chroma Green #389, Rosco).
In the AlphaScreen Inhibition Assay described here, protein A (Staphylococcus aureus) conjugated Acceptor beads are used together with streptavidin coated Donor beads (Perkin Elmer 6760617M). The Acceptor beads are pre-incubated with Fc-tagged recombinant human RAGE (rhRAGE-Fc) allowing binding of the rhRAGE-Fc to protein A on the beads. Biotinylated human S100A9 (biot-hS100A9) is pre-incubated with the low molecular test compounds. The pre-mixes are then added to the wells of a micro-plate and incubated allowing interaction between biot-hS100A9 and rhRAGE-Fc. Subsequent addition of streptavidin coated Donor beads causes binding of the streptavidin to the biotinylated hS100A9. After an additional incubation the signal is measured.
Without inhibitory compounds, the interaction of biot-hS100A9 to rhRAGE-Fc will bring the Acceptor and Donor beads in close proximity thus generating a high signal. With an inhibitor present the complex will not form resulting in a decreased signal.
Chemicals and reagents. • AlphaScreen® General IgG (Protein A) Detection Kit, (PerkinElmer 6760617M) • HBS-P buffer (GE Healthcare, BR-1003-68) • HBS-N buffer (GE Healthcare, BR-1003-69) • CaCl2 in HBS-P • ZnCl2 in Milli-Q water • DMSO • Biotinylated hS100A9, (biotinylated via cystein by EZ-link Iodoacetyl-PEG2-Biotin reagent (Pierce no. 21334), in HBS-N • rhRAGE-Fc (R&D Systems, 1145-RG-50), in HBS-P
The AlphaScreen assay method is used for screening of the inhibitory effect of different compound samples at fixed concentrations or for IC50 determination by varying the compound concentrations. Samples of test compounds and references are prepared from solutions in DMSO. Relevant reference inhibitors and DMSO are used as controls for defined inhibition and non-inhibition, respectively in the assay. The percent inhibition in assay for test compounds and references are calculated by comparing their obtained assay signals with the signal values for the control with only DMSO (no compound).
Assay concentration of biotinylated hS100A9 and rhRAGE-Fc are batch dependent, and are determined and defined by separate cross-titration experiments using this AlphaScreen inhibition method to verify the optimal setup regarding signal strength and achievement of a defined inhibition with relevant reference compounds. The Final assay concentrations of Acceptor and Donor beads are 20 μg/mL.
Experimental Set Up for Screening, Preparation of Solutions and Beads.
Assay buffer is prepared by adding CaCl2 and ZnCl2 to HBS-P and is used freshly prepared in the experiment.
Biotin-hS100A9 solution for the experiment is prepared by dilution of appropriate amount of stock solution biot-hS100A9 in assay buffer (with CaCl2 and ZnCl2) and incubation in room temperature for 30 minutes.
rhRAGE-Fc solution for the experiment is prepared by dilution appropriate amount of rhRAGE-Fc stock in assay buffer.
Protein A Acceptor beads are diluted in assay buffer and are added to an equal volume of the prepared diluted rhRAGE-Fc solution.

Chain of biotinylated human S100A9 : rhRAGE-Fc interaction (P06702 whole entry): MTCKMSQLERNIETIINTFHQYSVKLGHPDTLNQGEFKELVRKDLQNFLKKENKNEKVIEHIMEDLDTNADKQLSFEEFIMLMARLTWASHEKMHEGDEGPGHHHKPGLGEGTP

Question: `COc1ccc(S(=O)(=O)Nc2cncc(Cl)c2O)cc1Cl` [Example 122, 3-chloro-N-(5-chloro-4-hydroxypyridin-3-yl)-4-methoxybenzene-1-sulfonamide] was tested. Which IC50 did it give?
Answer: Its IC50 is > 1000 nM.

Question: For `COc1ncc(S(=O)(=O)Nc2cncc(Cl)c2O)cc1Br` [Example 59, 5-bromo-N-(5-chloro-4-hydroxypyridin-3-yl)-6-methoxypyridine-3-sulfonamide], which IC50 is on record?
Answer: Its IC50 is 2800 nM.

Question: How did the IC50 turn out when `O=S(=O)(Nc1nnc(Cl)cc1O)c1cc(Cl)cc(Cl)c1` [Example 95, 3,5-dichloro-N-(6-chloro-4-hydroxypyridazin-3-yl)benzene-1-sulfonamide] was run?
Answer: Its IC50 is 700 nM.

Question: How did the IC50 turn out when `O=S(=O)(Nc1cncc(Cl)c1O)c1ccc(OC(F)(F)F)c(Cl)c1` [Example 102, 3-chloro-N-(5-chloro-4-hydroxypyridin-3-yl)-4-(trifluoromethoxy)benzene-1-sulfonamide] was run?
Answer: Its IC50 is 2200 nM.

Question: How did the IC50 turn out when `CS(=O)(=O)c1cc(O)c(NS(=O)(=O)c2cc(Cl)cc(Cl)c2)cn1` [Example 155, 3,5-dichloro-N-(4-hydroxy-6-methanesulfonylpyridin-3-yl)benzene-1-sulfonamide] was run?
Answer: The IC50 was > 1000 nM.

Question: Which IC50 does the source give for `CCCc1ccc(S(=O)(=O)Nc2ccc(Cl)nc2O)cc1` [Example 179, N-(6-chloro-2-hydroxypyridin-3-yl)-4-propylbenzene-1-sulfonamide] here?
Answer: Its IC50 is < 1000 nM.

Question: Which IC50 does the source give for `CS(=O)(=O)c1cnc(NS(=O)(=O)Cc2cc(Cl)cc(Cl)c2)c(O)c1` [Example 32, 1-(3,5-dichlorophenyl)-N-(3-hydroxy-5-methanesulfonylpyridin-2-yl)methane-sulfonamide] here?
Answer: Its IC50 is 140 nM.

Question: How did the IC50 turn out when `O=S(=O)(Nc1cc(Cl)cnc1O)c1cc(Cl)sc1Cl` [Example 74, 2,5-dichloro-N-(5-chloro-2-hydroxypyridin-3-yl)thiophene-3-sulfonamide] was run?
Answer: The IC50 was 2600 nM.

Question: For `O=S(=O)(Nc1ncc(Br)nc1O)C(c1cc(Cl)cc(Cl)c1)C(F)(F)F` (racemic) [Example 141, (+/−)-N-(5-bromo-3-hydroxypyrazin-2-yl)-1-(3,5-dichlorophenyl)-2,2,2-trifluoroethane-1-sulfonamide], which IC50 is on record?
Answer: Its IC50 is < 1000 nM.

Question: Which IC50 does the source give for `N#Cc1cnc(NS(=O)(=O)Cc2cc(Cl)cc(Cl)c2)c(O)c1` [Example 189, N-(5-cyano-3-hydroxypyridin-2-yl)-1-(3,5-dichlorophenyl)methanesulfonamide] here?
Answer: Its IC50 is 120 nM.

Question: Which IC50 does the source give for `O=S(=O)(Cc1cc(Cl)cc(Cl)c1)Nc1nc(Cl)ncc1O` [Example 143, N-(2-chloro-5-hydroxypyrimidin-4-yl)-1-(3,5-dichlorophenyl)methanesulfonamide] here?
Answer: The IC50 was 180 nM.

Question: With `O=S(=O)(Cc1ccc(Cl)c(Cl)c1)Nc1cnc(Cl)cc1O` [Example 70, N-(6-chloro-4-hydroxypyridin-3-yl)-1-(3,4-dichlorophenyl)methanesulfonamide] as the compound, how does the IC50 read?
Answer: Its IC50 is 800 nM.

Question: `COc1ncc(CS(=O)(=O)Nc2ccc(Cl)nc2O)cc1Cl` [Example 182, N-(6-chloro-2-hydroxypyridin-3-yl)-1-(5-chloro-6-methoxypyridin-3-yl)methane-sulfonamide] was tested. Which IC50 did it give?
Answer: The IC50 was < 1000 nM.

Question: `COc1ncc(S(=O)(=O)Nc2cnccc2O)cc1Br` [Example 62, 5-bromo-N-(4-hydroxypyridin-3-yl)-6-methoxypyridine-3-sulfonamide] was tested. Which IC50 did it give?
Answer: The IC50 was 4400 nM.

Question: How did the IC50 turn out when `O=S(=O)(Nc1ccnc(Cl)c1O)c1cc(Cl)cc(Cl)c1` [Example 170, 3,5-dichloro-N-(2-chloro-3-hydroxypyridin-4-yl)benzene-1-sulfonamide] was run?
Answer: Its IC50 is < 1000 nM.

Question: For `O=S(=O)(Cc1ccc(Cl)c(Cl)c1)Nc1cc(Cl)cnc1O` [Example 172, N-(5-chloro-2-hydroxypyridin-3-yl)-1-(3,4-dichlorophenyl)methanesulfonamide], which IC50 is on record?
Answer: The IC50 was 3100 nM.

Question: With `CS(=O)(=O)c1nc(NS(=O)(=O)Cc2cc(Cl)cc(Cl)c2)c(O)cc1Cl` [Example 134, N-(5-chloro-3-hydroxy-6-methanesulfonylpyridin-2-yl)-1-(3,5-dichlorophenyl)-methanesulfonamide] as the compound, how does the IC50 read?
Answer: Its IC50 is 530 nM.

Question: For `O=S(=O)(Cc1cc(Cl)cc(Cl)c1)Nc1ncc(S(=O)(=O)C2CCCC2)cc1O` [Example 131, N-[5-(cyclopentanesulfonyl)-3-hydroxypyridin-2-yl]-1-(3,5-dichlorophenyl)methane-sulfonamide], which IC50 is on record?
Answer: The IC50 was 120 nM.

Question: How did the IC50 turn out when `N#Cc1cncc(NS(=O)(=O)Cc2cc(Cl)cc(Cl)c2)c1O` [Example 138, N-(5-cyano-4-hydroxypyridin-3-yl)-1-(3,5-dichlorophenyl)methanesulfonamide] was run?
Answer: Its IC50 is 3900 nM.

Question: With `N#Cc1ccc(Cl)c(CS(=O)(=O)Nc2nnc(Cl)cc2O)c1` [Example 85, N-(6-chloro-4-hydroxypyridazin-3-yl)-1-(2-chloro-5-cyanophenyl)methane-sulfonamide] as the compound, how does the IC50 read?
Answer: Its IC50 is 980 nM.

Question: For `O=S(=O)(Cc1cc(F)cc(Cl)c1)Nc1nnc(Cl)cc1O` [Example 94, N-(6-chloro-4-hydroxypyridazin-3-yl)-1-(3-chloro-5-fluorophenyl)methane-sulfonamide], which IC50 is on record?
Answer: Its IC50 is 300 nM.

Question: For `CCSc1cc(Cl)cc(CS(=O)(=O)Nc2ccc(Cl)nc2O)c1` [Example 186, N-(6-chloro-2-hydroxypyridin-3-yl)-1-[3-chloro-5-(ethylsulfanyl)phenyl]methane-sulfonamide], which IC50 is on record?
Answer: The IC50 was < 1000 nM.

Question: How did the IC50 turn out when `O=S(=O)(Cc1ccc(C(F)(F)F)cc1)Nc1ccc(Cl)nc1O` [Example 178, N-(6-chloro-2-hydroxypyridin-3-yl)-1-[4-(trifluoromethyl)phenyl]methane-sulfonamide] was run?
Answer: The IC50 was > 1000 nM.

Question: How did the IC50 turn out when `O=S(=O)(Cc1ccc(F)c(F)c1)Nc1nnc(Cl)cc1O` [Example 76, N-(6-chloro-4-hydroxypyridazin-3-yl)-1-(3,4-difluorophenyl)methanesulfonamide] was run?
Answer: Its IC50 is < 1000 nM.

Question: How did the IC50 turn out when `O=S(=O)(Cc1cc(Cl)cc(Cl)c1)Nc1nnc(Cl)cc1O` [Example 36, N-(6-chloro-4-hydroxypyridazin-3-yl)-1-(3,5-dichlorophenyl)methanesulfonamide] was run?
Answer: Its IC50 is 100 nM.

Question: With `CCN(CC)C(=O)c1cc(Cl)cc(CS(=O)(=O)Nc2nnc(Cl)cc2O)c1` [Example 161, 3-chloro-5-{[(6-chloro-4-hydroxypyridazin-3-yl)sulfamoyl]methyl}-N,N-diethylbenzamide] as the compound, how does the IC50 read?
Answer: Its IC50 is 5100 nM.

Question: Which IC50 does the source give for `O=S(=O)(Cc1cc(Cl)cc(Cl)c1)Nc1nnc(S(=O)(=O)CCCO)cc1O` [Example 139, 1-(3,5-dichlorophenyl)-N-[4-hydroxy-6-(3-hydroxypropanesulfonyl)pyridazin-3-yl]methanesulfonamide] here?
Answer: Its IC50 is < 1000 nM.

Question: How did the IC50 turn out when `CCS(=O)(=O)c1ccc(NS(=O)(=O)Cc2cc(Cl)cc(Cl)c2)c(O)n1` [Example 188, 1-(3,5-dichlorophenyl)-N-[6-(ethanesulfonyl)-2-hydroxypyridin-3-yl]methane-sulfonamide] was run?
Answer: Its IC50 is < 1000 nM.

Question: How did the IC50 turn out when `O=S(=O)(Cc1cc(Cl)cc(Cl)c1)Nc1ccncc1O` [Example 167, 1-(3,5-dichlorophenyl)-N-(3-hydroxypyridin-4-yl)methanesulfonamide] was run?
Answer: The IC50 was < 1000 nM.

Question: For `O=S(=O)(Cc1cc(Cl)cc(Cl)c1)Nc1cnc(Cl)nc1O` [Example 107, N-(2-chloro-4-hydroxypyrimidin-5-yl)-1-(3,5-dichlorophenyl)methanesulfonamide], which IC50 is on record?
Answer: Its IC50 is 4000 nM.

Question: How did the IC50 turn out when `O=S(=O)(Nc1ncc(Cl)cc1O)c1cncc(Br)c1` [Example 40, 5-bromo-N-(5-chloro-3-hydroxypyridin-2-yl)pyridine-3-sulfonamide] was run?
Answer: The IC50 was 3000 nM.

Question: How did the IC50 turn out when `O=S(=O)(Cc1cc(Cl)sc1Cl)Nc1ncc(Cl)cc1O` [Example 20, N-(5-chloro-3-hydroxypyridin-2-yl)-1-(2,5-dichlorothiophen-3-yl)methane-sulfonamide] was run?
Answer: The IC50 was < 1000 nM.

Question: With `CC(C)c1cnc(NS(=O)(=O)c2cnc(Cl)c(Br)c2)c(O)c1` [Example 11, 5-bromo-6-chloro-N-[3-hydroxy-5-(propan-2-yl)pyridin-2-yl]pyridine-3-sulfonamide] as the compound, how does the IC50 read?
Answer: The IC50 was > 1000 nM.
